In US10011586B2, “Heterocyclic compound, method for preparing the same, and pharmaceutical composition comprising the same” (Daewoong Pharmaceutical Co., Ltd., priority 2015, dated 2018):

Legend:
PRS enzyme = molecular target: T1, PRS enzyme (Homo sapiens, UniProt P07814); assay: PRS enzyme activity inhibition experiment; format: biochemical; settings: purified PRS protein subcloned from EPRS cDNA; [3H]proline, 37° C., 5 to 10 minutes, liquid scintillation counter; read-out: PRS IC50
T1 construct: the portion corresponding to PRS in cDNA of EPRS was subcloned; made in house
T1 sequence (P07814 1007-1512 limits assumed): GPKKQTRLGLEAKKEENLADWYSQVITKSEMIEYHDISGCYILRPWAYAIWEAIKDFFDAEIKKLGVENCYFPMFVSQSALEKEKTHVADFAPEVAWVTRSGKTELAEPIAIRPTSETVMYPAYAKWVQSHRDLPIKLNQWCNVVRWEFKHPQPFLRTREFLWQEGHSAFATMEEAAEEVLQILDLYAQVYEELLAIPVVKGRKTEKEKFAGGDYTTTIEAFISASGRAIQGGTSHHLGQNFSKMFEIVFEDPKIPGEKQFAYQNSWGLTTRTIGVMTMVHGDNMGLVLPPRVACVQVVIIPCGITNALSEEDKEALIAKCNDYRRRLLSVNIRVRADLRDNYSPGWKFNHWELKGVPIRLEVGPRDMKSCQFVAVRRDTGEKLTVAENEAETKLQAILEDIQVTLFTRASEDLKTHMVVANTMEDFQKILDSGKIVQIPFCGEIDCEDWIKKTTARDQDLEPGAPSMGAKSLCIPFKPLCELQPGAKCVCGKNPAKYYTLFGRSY
Procedure: Specifically, the portion corresponding to PRS in cDNA of EPRS was subcloned, and the obtained high-purity PRS protein was purified and used in the experiment. The compounds (1 μM) prepared in Examples were added into the reaction buffer (20 mM KPO4 (pH 7.4), 6 mM MgAc, 5 mM ATP, […] tRNA, 0.5 mM DTT, […][^3H]proline (1 mCi/mL)) and allowed to react at 37° C. for 5 to 10 minutes. The reaction was terminated with 3M paper that was in advance dried by addition of 5% TCA. The radioactivity was measured using a liquid scintillation counter.
% Inhibition and IC50 values of the respective compounds were calculated and analyzed using Microsoft Excel or Sigma Plot 8.0. In Table 1, the results are divided into A, B and C according to the range of IC50.

NCI-H460 cells = assay: Cancer cell growth inhibition experiment (MTT assay); format: cell-based; settings: Homo sapiens, lung cancer cell line, compounds 48 hours, cell viability by MTT assay
Procedure: NCl-H460 cells, lung cancer cell lines, were cultured in 5% CO2, 37° C. incubator using a flask for 75 cm^2 tissue culture. 96-well plates were used for the evaluation. These were prepared by differently applying at concentrations in the range of 6,000 to 12,000 cells/well according to the growth rate of the cell lines. The medium containing 5% FBS were dispensed in 200 μL/well and used. The medium were cultured for 24 hours. After confirming the cell status and dispensing form of a 96-well plate under a microscope, they were used for subsequent experiments. The compounds were evaluated at concentrations of 100, 30, 10, 3, 1, 0.3, 0.03, 0.01 μM. After removing the existing medium, the compounds with various concentrations were treated in an amount of 200 μL/well. The compounds-treated plates were further cultured for 48 hours, and the cell viabilities were measured by MTT assay to calculate IC50 values.
% Inhibition and IC50 values of the respective compounds were calculated and analyzed using Sigma Plot 8.0. In Table 2, the results are divided into A, B and C according to the range of IC50. The case where the derived IC50 is 3 μM or less is represented by “A”, the case where the IC50 is 3 to 10 μM is represented by “B”, and the case where the IC50 is 10 μM or higher is represented by “C”.

Row | Compound | IC50 (PRS enzyme) [nM] | IC50 (NCI-H460 cells) [µM]
1 | COc1cccc(-c2ccc3c(ncn3CC(=O)C[C@H]3NCCC[C@@H]3O)c2C)c1 [Example 22, 1-((2R,3S)-3-hydroxypiperidin-2-yl)-3-(5-(3-methoxyphenyl)-4-methyl-1H-benzo[d]imidazol-1-yl)propan-2-one] | > 500 | ≥ 10
2 | Cc1c(-c2cscn2)ccc2c1ncn2CC(=O)C[C@H]1NCCC[C@@H]1O [Example 23, 1-((2R,3S)-3-hydroxypiperidin-2-yl)-3-(4-methyl-5-(thiazol-4-yl)-1H-benzo[d]imidazol-1-yl)propan-2-one] | < 100 | ≥ 10
3 | O=C(C[C@H]1NCCC[C@@H]1O)Cn1cnc2ccc(-c3ccccc3)cc21 [Example 24, 1-((2R,3S)-3-hydroxypiperidin-2-yl)-3-(6-phenyl-1H-benzo[d]imidazol-1-yl)propan-2-one] | < 100 | 3 to 10
4 | O=C(C[C@H]1NCCC[C@@H]1O)Cn1cnc2ccc(-c3cccc(F)c3)cc21 [Example 25, 1-(6-(3-fluorophenyl)-1H-benzo[d]imidazol-1-yl)-3-((2R,3S)-3-hydroxypiperidin-2-yl)propan-2-one] | < 100 | ≤ 3
5 | O=C(C[C@H]1NCCC[C@@H]1O)Cn1cnc2ccc(-c3ccccc3Cl)cc21 [Example 26, 1-(6-(2-chlorophenyl)-1H-benzo[d]imidazol-1-yl)-3-((2R,3S)-3-hydroxypiperidin-2-yl)propan-2-one] | < 100 | 3 to 10
6 | O=C(C[C@H]1NCCC[C@@H]1O)Cn1cnc2ccc(-c3cccc(Cl)c3)cc21 [Example 27, 1-(6-(3-chlorophenyl)-1H-benzo[d]imidazol-1-yl)-3-((2R,3S)-3-hydroxypiperidin-2-yl)propan-2-one] | < 100 | ≤ 3
7 | O=C(C[C@H]1NCCC[C@@H]1O)Cn1cnc2ccc(-c3ccc(Cl)cc3)cc21 [Example 28, 1-(6-(4-chlorophenyl)-1H-benzo[d]imidazol-1-yl)-3-((2R,3S)-3-hydroxypiperidin-2-yl)propan-2-one] | < 100 | 3 to 10
8 | O=C(C[C@H]1NCCC[C@@H]1O)Cn1cnc2ccc(-c3cccc(C(F)(F)F)c3)cc21 [Example 29, 1-((2R,3S)-3-hydroxypiperidin-2-yl)-3-(6-(3-(trifluoromethyl)phenyl)-1H-benzo[d]imidazol-1-yl)propan-2-one] | < 100 | ≤ 3
9 | Cc1cccc(-c2ccc3ncn(CC(=O)C[C@H]4NCCC[C@@H]4O)c3c2)c1 [Example 30, 1-((2R,3S)-3-hydroxypiperidin-2-yl)-3-(6-(m-tolyl)-1H-benzo[d]imidazol-1-yl)propan-2-one] | < 100 | 3 to 10
10 | O=C(C[C@H]1NCCC[C@@H]1O)Cn1cnc2ccc(-c3cc(Cl)cc(Cl)c3)cc21 [Example 31, 1-(6-(3,5-dichlorophenyl)-1H-benzo[d]imidazol-1-yl)-3-((2R,3S)-3-hydroxypiperidin-2-yl)propan-2-one] | < 100 | 3 to 10
11 | O=C(C[C@H]1NCCC[C@@H]1O)Cn1cnc2ccc(-c3cc(F)cc(Cl)c3)cc21 [Example 32, 1-(6-(3-chloro-5-fluorophenyl)-1H-benzo[d]imidazol-1-yl)-3-((2R,3S)-3-hydroxypiperidin-2-yl)propan-2-one] | < 100 | ≤ 3
12 | O=C(C[C@H]1NCCC[C@@H]1O)Cn1cnc2ccc(-c3ccc(F)c(Cl)c3)cc21 [Example 33, 1-(6-(3-chloro-4-fluorophenyl)-1H-benzo[d]imidazol-1-yl)-3-((2R,3S)-3-hydroxypiperidin-2-yl)propan-2-one] | < 100 | 3 to 10
13 | Cc1cc(Cl)cc(-c2ccc3ncn(CC(=O)C[C@H]4NCCC[C@@H]4O)c3c2)c1 [Example 34, 1-(6-(3-chloro-5-methylphenyl)-1H-benzo[d]imidazol-1-yl)-3-((2R,3S)-3-hydroxypiperidin-2-yl)propan-2-one] | < 100 | 3 to 10
14 | COc1cc(Cl)cc(-c2ccc3ncn(CC(=O)C[C@H]4NCCC[C@@H]4O)c3c2)c1 [Example 35, 1-(6-(3-chloro-5-methoxyphenyl)-1H-benzo[d]imidazol-1-yl)-3-((2R,3S)-3-hydroxypiperidin-2-yl)propan-2-one] | < 100 | 3 to 10
15 | N#Cc1cc(Cl)cc(-c2ccc3ncn(CC(=O)C[C@H]4NCCC[C@@H]4O)c3c2)c1 [Example 36, 3-chloro-5-(1-(3-((2R,3S)-3-hydroxypiperidin-2-yl)-2-oxopropyl)-1H-benzo[d]imidazol-6-yl)benzonitrile] | < 100 | 3 to 10
16 | O=C(C[C@H]1NCCC[C@@H]1O)Cn1cnc2ccc(-c3cn[nH]c3)cc21 [Example 37, 1-(6-(1H-pyrazol-4-yl)-1H-benzo[d]imidazol-1-yl)-3-((2R,3S)-3-hydroxypiperidin-2-yl)propan-2-one] | < 100 | ≥ 10
17 | O=C(C[C@H]1NCCC[C@@H]1O)Cn1cnc2ccc(-c3cc[nH]n3)cc21 [Example 38, 1-(6-(1H-pyrazol-3-yl)-1H-benzo[d]imidazol-1-yl)-3-((2R,3S)-3-hydroxypiperidin-2-yl)propan-2-one] | 100 to 500 | ≥ 10
18 | O=C(C[C@H]1NCCC[C@@H]1O)Cn1cnc2ccc(-c3cscn3)cc21 [Example 39, 1-((2R,3S)-3-hydroxypiperidin-2-yl)-3-(6-(thiazol-4-yl)-1H-benzo[d]imidazol-1-yl)propan-2-one] | 100 to 500 | ≥ 10
19 | O=C(C[C@H]1NCCC[C@@H]1O)Cn1cnc2ccc(-c3ccc(=O)[nH]c3)cc21 [Example 40, 5-(1-(3-((2R,3S)-3-hydroxypiperidin-2-yl)-2-oxopropyl)-1H-benzo[d]imidazol-6-yl)pyridin-2(1H)-one] | > 500 | ≥ 10
20 | O=C(C[C@H]1NCCC[C@@H]1O)Cn1cnc2ncc(-c3cccc(Cl)c3)cc21 [Example 41, 1-(6-(3-chlorophenyl)-1H-imidazo[4,5-b]pyridin-1-yl)-3-((2R,3S)-3-hydroxypiperidin-2-yl)propan-2-one] | < 100 | ≥ 10
21 | O=C(C[C@H]1NCCC[C@@H]1O)Cn1cnc2ccc(-c3ccccc3F)nc21 [Example 43, 1-(5-(2-fluorophenyl)-3H-imidazo[4,5-b]pyridin-3-yl)-3-((2R,3S)-3-hydroxypiperidin-2-yl)propan-2-one] | 100 to 500 | ≤ 3
22 | O=C(C[C@H]1NCCC[C@@H]1O)Cn1cnc2ccc(-c3cccc(F)c3)nc21 [Example 44, 1-(5-(3-fluorophenyl)-3H-imidazo[4,5-b]pyridin-3-yl)-3-((2R,3S)-3-hydroxypiperidin-2-yl)propan-2-one] | < 100 | ≤ 3
23 | O=C(C[C@H]1NCCC[C@@H]1O)Cn1cnc2ccc(-c3ccc(F)cc3)nc21 [Example 45, 1-(5-(4-fluorophenyl)-3H-imidazo[4,5-b]pyridin-3-yl)-3-((2R,3S)-3-hydroxypiperidin-2-yl)propan-2-one] | < 100 | 3 to 10
24 | O=C(C[C@H]1NCCC[C@@H]1O)Cn1cnc2ccc(-c3cccc(Cl)c3)nc21 [Example 46, 1-(5-(3-chlorophenyl)-3H-imidazo[4,5-b]pyridin-3-yl)-3-((2R,3S)-3-hydroxypiperidin-2-yl)propan-2-one] | < 100 | ≤ 3
25 | O=C(C[C@H]1NCCC[C@@H]1O)Cn1cnc2ccc(-c3cccc(C(F)(F)F)c3)nc21 [Example 47, 1-((2R,3S)-3-hydroxypiperidin-2-yl)-3-(5-(3-(trifluoromethyl)phenyl)-3H-imidazo[4,5-b]pyridin-3-yl)propan-2-one] | < 100 | ≤ 3
26 | O=C(C[C@H]1NCCC[C@@H]1O)Cn1cnc2cccc(-c3ccccc3)c21 [Example 48, 1-((2R,3S)-3-hydroxypiperidin-2-yl)-3-(7-phenyl-1H-benzo[d]imidazol-1-yl)propan-2-one] | 100 to 500 | ≥ 10
